Calls of active or inactive are those of the source.
Experiments:
SUMO E1/E2 = SUMO E1/E2 (Homo sapiens, UniProt P63279+Q9UBE0+Q9UBT2); test: SAR analysis of SUMOylation using HTRF in an in-Vitro dose response assay. [Related pubchem assays (depositor defined):AID2006, AID2011, AID2018, AID2069, AID2658]; assay type: functional
[1] = molecular target: T1, Voltage-gated N-type calcium channel alpha-1B subunit/Amyloid beta A4 precursor protein-binding family A member 1 (Homo sapiens, UniProt Q00975+Q02410); test: disruptors of Mint-PDZ/N-type channel peptide interaction – biochemical, HTRF, set 2, SAR follow-up (AID 434980); assay type: functional
T1 sequence (Q00975 whole entry): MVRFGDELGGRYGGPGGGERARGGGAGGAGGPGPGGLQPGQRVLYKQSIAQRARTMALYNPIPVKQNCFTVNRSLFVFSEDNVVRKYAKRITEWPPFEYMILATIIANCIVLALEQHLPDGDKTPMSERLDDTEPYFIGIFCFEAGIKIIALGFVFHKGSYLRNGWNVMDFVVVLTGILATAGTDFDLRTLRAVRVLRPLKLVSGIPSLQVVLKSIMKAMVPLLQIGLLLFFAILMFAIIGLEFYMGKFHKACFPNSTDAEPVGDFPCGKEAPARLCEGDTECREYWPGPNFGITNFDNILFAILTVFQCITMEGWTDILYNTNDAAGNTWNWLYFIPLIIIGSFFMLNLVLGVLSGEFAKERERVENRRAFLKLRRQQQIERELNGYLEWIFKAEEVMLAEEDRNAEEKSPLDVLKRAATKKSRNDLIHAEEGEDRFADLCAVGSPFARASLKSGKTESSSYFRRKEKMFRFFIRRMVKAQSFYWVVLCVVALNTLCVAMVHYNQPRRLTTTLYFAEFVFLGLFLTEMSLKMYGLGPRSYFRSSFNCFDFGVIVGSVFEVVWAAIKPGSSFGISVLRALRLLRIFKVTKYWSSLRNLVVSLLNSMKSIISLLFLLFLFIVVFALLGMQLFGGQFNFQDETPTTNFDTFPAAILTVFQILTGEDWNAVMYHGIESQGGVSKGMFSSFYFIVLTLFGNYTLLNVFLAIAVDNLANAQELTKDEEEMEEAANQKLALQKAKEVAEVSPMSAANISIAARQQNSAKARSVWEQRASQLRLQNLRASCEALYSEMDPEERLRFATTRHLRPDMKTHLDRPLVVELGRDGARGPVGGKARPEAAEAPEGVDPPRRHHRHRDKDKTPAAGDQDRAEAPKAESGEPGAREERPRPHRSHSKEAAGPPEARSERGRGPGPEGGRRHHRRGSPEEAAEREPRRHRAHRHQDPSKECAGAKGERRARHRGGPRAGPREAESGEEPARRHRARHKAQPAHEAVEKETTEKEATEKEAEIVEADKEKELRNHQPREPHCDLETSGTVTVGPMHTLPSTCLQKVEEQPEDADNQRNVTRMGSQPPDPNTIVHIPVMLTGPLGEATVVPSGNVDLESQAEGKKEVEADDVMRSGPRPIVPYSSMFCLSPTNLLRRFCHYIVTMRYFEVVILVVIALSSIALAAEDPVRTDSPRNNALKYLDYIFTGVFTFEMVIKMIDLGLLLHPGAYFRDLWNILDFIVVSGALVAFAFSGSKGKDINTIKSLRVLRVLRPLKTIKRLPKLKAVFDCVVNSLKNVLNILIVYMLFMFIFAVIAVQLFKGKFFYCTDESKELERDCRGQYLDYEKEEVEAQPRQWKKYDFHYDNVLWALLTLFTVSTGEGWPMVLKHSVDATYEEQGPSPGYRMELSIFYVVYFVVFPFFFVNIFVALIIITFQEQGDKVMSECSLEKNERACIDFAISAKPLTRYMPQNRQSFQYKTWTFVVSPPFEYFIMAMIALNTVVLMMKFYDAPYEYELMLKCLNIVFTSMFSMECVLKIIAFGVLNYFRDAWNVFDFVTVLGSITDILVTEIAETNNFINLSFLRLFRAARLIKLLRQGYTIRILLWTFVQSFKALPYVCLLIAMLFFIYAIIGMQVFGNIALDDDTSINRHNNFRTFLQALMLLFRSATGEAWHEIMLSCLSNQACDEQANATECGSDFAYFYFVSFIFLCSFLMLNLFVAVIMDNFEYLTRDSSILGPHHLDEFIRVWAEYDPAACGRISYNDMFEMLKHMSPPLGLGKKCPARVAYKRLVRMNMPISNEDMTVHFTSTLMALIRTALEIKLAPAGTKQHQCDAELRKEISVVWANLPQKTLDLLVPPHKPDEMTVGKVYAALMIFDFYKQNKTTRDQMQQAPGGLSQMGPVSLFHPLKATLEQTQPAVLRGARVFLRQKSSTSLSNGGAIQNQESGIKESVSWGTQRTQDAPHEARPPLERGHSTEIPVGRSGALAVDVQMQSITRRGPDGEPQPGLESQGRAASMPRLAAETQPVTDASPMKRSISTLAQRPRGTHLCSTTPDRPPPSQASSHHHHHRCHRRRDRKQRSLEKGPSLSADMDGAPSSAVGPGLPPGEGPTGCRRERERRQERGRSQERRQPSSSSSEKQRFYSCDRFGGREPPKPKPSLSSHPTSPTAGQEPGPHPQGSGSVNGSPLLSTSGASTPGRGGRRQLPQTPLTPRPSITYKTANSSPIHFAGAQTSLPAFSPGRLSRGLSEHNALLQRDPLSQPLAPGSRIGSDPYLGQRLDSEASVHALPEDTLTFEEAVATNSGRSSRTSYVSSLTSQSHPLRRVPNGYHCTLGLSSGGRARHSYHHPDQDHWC
T1 sequence (Q02410 whole entry): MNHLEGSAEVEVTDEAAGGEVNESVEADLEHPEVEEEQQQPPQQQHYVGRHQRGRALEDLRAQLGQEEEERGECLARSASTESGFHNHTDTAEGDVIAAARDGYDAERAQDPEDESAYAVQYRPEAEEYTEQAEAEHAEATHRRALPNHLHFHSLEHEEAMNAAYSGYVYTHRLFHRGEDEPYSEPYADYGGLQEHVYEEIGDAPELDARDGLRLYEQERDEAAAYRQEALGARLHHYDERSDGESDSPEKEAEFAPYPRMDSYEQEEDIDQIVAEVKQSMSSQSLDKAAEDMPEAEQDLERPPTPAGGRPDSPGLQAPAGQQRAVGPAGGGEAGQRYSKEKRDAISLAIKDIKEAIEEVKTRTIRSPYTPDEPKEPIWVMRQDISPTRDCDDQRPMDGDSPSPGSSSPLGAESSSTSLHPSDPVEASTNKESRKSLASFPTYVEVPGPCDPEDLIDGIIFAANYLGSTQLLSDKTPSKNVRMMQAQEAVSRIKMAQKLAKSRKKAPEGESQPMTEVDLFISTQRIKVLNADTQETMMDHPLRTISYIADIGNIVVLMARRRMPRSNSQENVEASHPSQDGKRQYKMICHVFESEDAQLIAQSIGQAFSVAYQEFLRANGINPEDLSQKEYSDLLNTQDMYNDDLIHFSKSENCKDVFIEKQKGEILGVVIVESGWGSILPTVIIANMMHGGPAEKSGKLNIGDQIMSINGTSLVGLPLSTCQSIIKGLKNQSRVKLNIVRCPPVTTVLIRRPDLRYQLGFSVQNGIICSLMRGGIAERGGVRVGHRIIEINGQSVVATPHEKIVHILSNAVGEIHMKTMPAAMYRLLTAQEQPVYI

[2] = molecular target: T1, Voltage-gated N-type calcium channel alpha-1B subunit/Amyloid beta A4 precursor protein-binding family A member 1; test: disruptors of Mint-PDZ/N-type channel peptide interaction – biochemical, HTRF, SAR follow-up (AID 2489); assay type: functional
[3] = molecular target: Delta-type opioid receptor (Homo sapiens, UniProt P41143); test: Counterscreen for agonists of heterodimerization of the mu 1 (OPRM1) and delta 1 (OPRD1) opioid receptors: Luminescence-based cell-based high throughput dose response assay to identify agonists of OPRD1 homodimerization. [Related pubchem assays (depositor defined):AID504326, AID504355, AID504692, AID504904, AID504905]; assay type: functional
Chain of Delta-type opioid receptor (P41143 whole entry): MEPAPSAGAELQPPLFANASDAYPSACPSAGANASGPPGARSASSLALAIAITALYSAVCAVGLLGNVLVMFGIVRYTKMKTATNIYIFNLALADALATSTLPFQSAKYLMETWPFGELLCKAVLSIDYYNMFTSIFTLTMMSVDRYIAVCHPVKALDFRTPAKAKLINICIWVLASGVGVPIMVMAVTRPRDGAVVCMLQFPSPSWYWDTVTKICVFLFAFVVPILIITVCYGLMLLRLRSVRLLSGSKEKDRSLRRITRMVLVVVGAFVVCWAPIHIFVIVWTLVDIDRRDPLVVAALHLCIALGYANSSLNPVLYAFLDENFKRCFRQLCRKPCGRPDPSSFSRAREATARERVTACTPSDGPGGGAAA

Mu-type opioid receptor = Mu-type opioid receptor (Homo sapiens, UniProt P35372); test: Counterscreen for agonists of heterodimerization of the mu 1 (OPRM1) and delta 1 (OPRD1) opioid receptors: Luminescence-based cell-based high throughput dose response assay to identify agonists of OPRM1 homodimerization.; assay type: functional;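 also: U2OS cells expressing OPRM1 and beta-arrestin as split beta-galactosidase partners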
Chain of Mu-type opioid receptor (P35372 whole entry): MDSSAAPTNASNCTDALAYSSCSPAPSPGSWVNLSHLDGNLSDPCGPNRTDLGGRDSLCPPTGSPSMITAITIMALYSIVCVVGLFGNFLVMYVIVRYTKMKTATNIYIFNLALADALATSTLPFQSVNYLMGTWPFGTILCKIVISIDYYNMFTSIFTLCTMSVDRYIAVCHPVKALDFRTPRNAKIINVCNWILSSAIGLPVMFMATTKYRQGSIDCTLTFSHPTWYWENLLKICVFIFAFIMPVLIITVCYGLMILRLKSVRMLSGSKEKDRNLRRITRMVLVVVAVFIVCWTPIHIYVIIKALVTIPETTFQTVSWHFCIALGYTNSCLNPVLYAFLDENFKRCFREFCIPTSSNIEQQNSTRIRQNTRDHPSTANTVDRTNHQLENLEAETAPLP

[4] = molecular target: 5-hydroxytryptamine receptor 5A (Homo sapiens, UniProt P47898); test: Counterscreen for agonists of OPRM1-OPRD1 heterodimerization: luminescence-based cell-based high throughput dose response assay to identify agonists of 5-hydroxytryptamine (serotonin) 5A receptor (HTR5A). [Related pubchem assays (depositor defined):AID504326, AID504355, AID504692, AID504904, AID504905]; assay type: functional
Chain of 5-hydroxytryptamine receptor 5A (P47898 whole entry): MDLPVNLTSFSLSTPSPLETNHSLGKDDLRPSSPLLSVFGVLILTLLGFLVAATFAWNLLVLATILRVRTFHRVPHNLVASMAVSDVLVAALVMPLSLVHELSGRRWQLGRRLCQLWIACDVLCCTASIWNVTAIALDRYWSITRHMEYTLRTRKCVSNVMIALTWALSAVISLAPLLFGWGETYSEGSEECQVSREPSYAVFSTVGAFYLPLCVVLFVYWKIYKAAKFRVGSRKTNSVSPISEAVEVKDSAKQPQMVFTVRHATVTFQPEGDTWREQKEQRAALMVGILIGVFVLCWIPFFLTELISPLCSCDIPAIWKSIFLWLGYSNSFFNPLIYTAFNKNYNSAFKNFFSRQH

Phospholipase D2 = Phospholipase D2 (Homo sapiens, UniProt O14939); test: cellular phospholipase D2 inhibition IC50 – cell-based, dose response (AID 602147); assay type: functional;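 also: cellular assay in HEK293 cells overexpressing GFP-tagged PLD2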
Phospholipase D1 = Phospholipase D1 (Homo sapiens, UniProt Q13393); test: cellular phospholipase D1 inhibition IC50 – cell-based, dose response (AID 602151); assay type: functional;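 also: cellular PLD1 assay in Calu-1 cells stimulated with PMA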
[5] = molecular target: T2, Orexin/Hypocretin receptor type 1 (Homo sapiens, UniProt O43613); test: (§1) Fluorescence-based cell-based high throughput dose response assay for antagonists of the orexin 1 receptor (OX1R; HCRTR1). [Related pubchem assays (depositor defined):AID434989, AID435008, AID463079, AID485270, AID492963, AID492964, AID492965, AID493232, AID504717, AID504718]; assay type: functional
T2 sequence (O43613 whole entry): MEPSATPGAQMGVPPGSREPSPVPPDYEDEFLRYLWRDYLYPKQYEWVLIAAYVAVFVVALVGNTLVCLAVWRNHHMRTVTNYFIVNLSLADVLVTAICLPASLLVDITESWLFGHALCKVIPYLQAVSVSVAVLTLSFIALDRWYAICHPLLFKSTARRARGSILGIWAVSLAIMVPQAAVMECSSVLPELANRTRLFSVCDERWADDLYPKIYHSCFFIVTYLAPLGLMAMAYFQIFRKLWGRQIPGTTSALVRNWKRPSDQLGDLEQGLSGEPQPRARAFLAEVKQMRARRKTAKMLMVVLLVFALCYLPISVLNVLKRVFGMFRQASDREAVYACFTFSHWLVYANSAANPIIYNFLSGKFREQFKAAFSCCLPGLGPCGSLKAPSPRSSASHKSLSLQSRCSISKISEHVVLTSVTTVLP

[6] = molecular target: T2, Orexin/Hypocretin receptor type 1; test: as §1, with “Homogeneous Time Resolved Fluorescence (HTRF)-based” for “Fluorescence-based”; assay type: functional
Orexin receptor type 2 [7] = molecular target: T3, Orexin receptor type 2 (Homo sapiens, UniProt O43614); test: Counterscreen assay for antagonists of the orexin 1 receptor (OX1R; HCRTR1): Fluorescence-based cell-based dose response assay for antagonists of the orexin 2 receptor (OX2R; HCRTR2), run by assay provider.; assay type: functional
T3 sequence (O43614 whole entry): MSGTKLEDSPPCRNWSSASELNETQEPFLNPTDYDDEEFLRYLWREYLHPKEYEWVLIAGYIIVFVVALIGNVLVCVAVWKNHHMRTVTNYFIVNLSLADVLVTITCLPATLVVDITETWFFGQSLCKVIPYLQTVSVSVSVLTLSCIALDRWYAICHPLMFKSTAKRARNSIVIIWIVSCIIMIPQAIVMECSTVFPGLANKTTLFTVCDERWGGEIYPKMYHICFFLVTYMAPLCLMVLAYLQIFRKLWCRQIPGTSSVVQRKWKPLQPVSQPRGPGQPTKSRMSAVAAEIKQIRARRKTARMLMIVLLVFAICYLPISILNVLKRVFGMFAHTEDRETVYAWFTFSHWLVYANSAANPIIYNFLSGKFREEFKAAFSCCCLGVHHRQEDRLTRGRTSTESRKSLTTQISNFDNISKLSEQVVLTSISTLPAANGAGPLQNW

CHO-K1 = test: (§2) Counterscreen for antagonists of the orexin 1 receptor (OX1R; HCRTR1): Homogeneous time resolved fluorescence (HTRF)-based cell-based dose response assay to identify antagonists of the parental CHO-K1 cell line. [Related pubchem assays (depositor defined):AID434989, AID435008, AID463079, AID485270, AID492963, AID492964, AID492965, AID493232, AID504699, AID504701]; assay type: functional; conditions: Cricetulus griseus
Orexin receptor type 2 [8] = molecular target: T3, Orexin receptor type 2; test: Counterscreen assay for antagonists of the orexin 1 receptor (OX1R; HCRTR1): Homogeneous Time Resolved Fluorescence (HTRF)-based cell-based dose response assay for antagonists of the orexin 2 receptor (OX2R; HCRTR2), run by assay provider.; assay type: functional
[9] = as §2, with “Fluorescence-based” for “Homogeneous time resolved fluorescence (HTRF)-based”, “cell-based high throughput” for “cell-based”, “CHO” for “CHO-K1”; assay type: functional
[10] = molecular target: Intestinal-type alkaline phosphatase (Mus musculus, UniProt P24822); test: PubChem AID 488785; assay type: functional
Nonstructural protein 1 = Nonstructural protein 1 (Influenza A virus, UniProt Q194T2); assay type: functional, Influenza A virus (A/California/07/2009(H1N1))
Chain of Nonstructural protein 1 (Q194T2 whole entry): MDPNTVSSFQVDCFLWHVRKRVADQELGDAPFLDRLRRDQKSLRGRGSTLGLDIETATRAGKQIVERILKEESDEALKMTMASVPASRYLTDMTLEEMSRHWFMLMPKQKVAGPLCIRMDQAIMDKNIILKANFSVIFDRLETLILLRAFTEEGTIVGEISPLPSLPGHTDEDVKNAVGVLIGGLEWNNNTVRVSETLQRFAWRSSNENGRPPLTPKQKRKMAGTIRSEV

[11] = molecular target: T4, Alkaline phosphatase, tissue-nonspecific isozyme (Homo sapiens, UniProt P05186); test: TNAP enzyme inhibition by screening hits, dose response, selectivity assay for mouse IAP inhibitor project, biochemical, human TNAP, uHTS hits (AID 488906); assay type: functional
T4 sequence (P05186 whole entry): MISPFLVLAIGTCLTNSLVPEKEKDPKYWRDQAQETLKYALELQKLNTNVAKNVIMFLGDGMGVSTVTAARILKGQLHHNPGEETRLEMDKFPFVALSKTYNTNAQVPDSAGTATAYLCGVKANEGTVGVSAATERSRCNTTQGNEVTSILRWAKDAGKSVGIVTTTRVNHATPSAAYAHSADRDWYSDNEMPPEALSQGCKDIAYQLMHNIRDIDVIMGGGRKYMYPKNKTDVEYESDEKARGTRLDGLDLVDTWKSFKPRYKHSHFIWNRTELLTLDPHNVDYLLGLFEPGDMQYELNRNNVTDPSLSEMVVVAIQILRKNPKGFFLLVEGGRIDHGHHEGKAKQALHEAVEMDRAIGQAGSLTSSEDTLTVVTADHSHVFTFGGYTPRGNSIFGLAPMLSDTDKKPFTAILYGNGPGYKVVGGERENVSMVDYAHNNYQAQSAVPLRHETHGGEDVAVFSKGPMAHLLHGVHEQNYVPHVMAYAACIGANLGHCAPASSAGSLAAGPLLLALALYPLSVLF

[12] = molecular target: Intestinal-type alkaline phosphatase (Homo sapiens, UniProt P09923); test: inhibition of human intestinal alkaline phosphatase – biochemical, dose response (AID 488876); assay type: functional
[13] = luciferase reporter signal suppression in cells – H4 neuroglioma cells, luminescence, dose response (AID 1990); assay type: functional, cell-based
cells = assay type: functional, cell-based
[14] = DRD fibroblast viability loss – cell-based, non-viral oncogenic, luminescence, dose response (AID 1934); assay type: functional; conditions: Homo sapiens
[15] = luciferase reporter signal reduction – luminescence, H4-C neuroglioblastoma cells, dose response (AID 2458); assay type: functional, cell-based;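 also: H4 neuroglioblastoma cells stably carrying a luciferase reporter gene fusion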
[16] = general cell-killing toxicity readout – plate reader, dry powder samples, cytotoxicity control for PAX8 inhibitor project, dose response (AID 743021); assay type: functional, cell-based
BJ [17] = test: cells; assay type: functional, cell-based; conditions: Homo sapiens
Paired box protein Pax-8 = Paired box protein Pax-8 (Homo sapiens, UniProt Q06710); test: PAX8 transcriptional activity inhibition in RMG-I – RMG-I cells, luciferase, cherry-pick, dose response (AID 687027); assay type: functional, cell-based;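 also: luciferase reporter driven by Pax8 target thyroperoxidase promoter measured by SteadyGlo luminescence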
Chain of Paired box protein Pax-8 (Q06710 whole entry): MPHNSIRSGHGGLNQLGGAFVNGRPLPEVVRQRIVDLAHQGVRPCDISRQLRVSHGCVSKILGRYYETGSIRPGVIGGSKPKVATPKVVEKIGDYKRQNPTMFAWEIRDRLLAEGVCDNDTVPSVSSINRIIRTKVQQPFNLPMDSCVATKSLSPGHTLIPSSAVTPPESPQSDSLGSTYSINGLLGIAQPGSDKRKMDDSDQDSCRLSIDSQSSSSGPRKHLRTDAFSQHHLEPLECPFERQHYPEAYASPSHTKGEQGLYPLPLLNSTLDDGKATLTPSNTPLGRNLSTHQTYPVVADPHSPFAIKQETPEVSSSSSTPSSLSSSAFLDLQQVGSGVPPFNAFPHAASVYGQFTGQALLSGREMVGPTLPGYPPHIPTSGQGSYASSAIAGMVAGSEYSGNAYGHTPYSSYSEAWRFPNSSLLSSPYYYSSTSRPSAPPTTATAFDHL

[18] = alpha-synuclein stem-loop translation blockers – luminescence, H4 neuroglioblastoma cells, dose confirmation, confirmation (AID 2454); assay type: functional, cell-based;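 also: H4 neuroglioblastoma cells carrying an alpha-synuclein 5'UTR luciferase reporter; potency for inhibition of the luciferase signal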
[19] = alpha-synuclein stem-loop luciferase translation blockers – H4 neuroglioma cells, luminescence, confirmation (AID 1988); assay type: functional, cell-based
BJ [20] = test: growth inhibition of engineered Ras-driven BJ cells – cell-based, alamar blue fluorescence, cherrypicked samples, dose response (AID 2631); assay type: functional; conditions: Homo sapiens;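 also: confirmatory dose-response assay in RAS-dependent BJ fibroblasts engineered with TERT, LT and ST, with cytotoxicity read by fluorescence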
[21] = Luminescence Cell-Based Dose Response HTS to Identify Inhibitors of 5'UTR Stem-Loop Driven Prion Protein mRNA Translation in H4 Neuroglioblastoma Cells. [Related pubchem assays: 1827 (Project Summary), 1813 (Primary HTS)]; assay type: functional

## COc1ccccc1CCNC(=O)COC(=O)c1cc(-c2ccco2)nc2ccccc12
SUMO E1/E2
  IC50: 25.3 µM (active)
[1]
  IC50: 17.4 µM (active)
[2]
  IC50: 28.5 µM (active)

## COc1ccc(C2C(C#N)=C(N)N(c3sc4c(c3C#N)CCCC4)C3=C2C(=O)CC(C)(C)C3)cc1 (configuration not stated)
[3]
  EC50: 11.6 µM (inactive)
Mu-type opioid receptor
  EC50: > 92.5 µM (inactive)
[4]
  EC50: > 92.5 µM (inactive)

## Cc1ccc(C(=O)N[C@@H](C)CN2CCC(n3c(=O)[nH]c4cc(Br)ccc43)CC2)cc1
Phospholipase D2
  IC50: 2.8 µM (active)
Phospholipase D1
  IC50: 0.007 µM (active)

## Cn1c2ccccc2c(=O)c2cc(C#Cc3cccc(N)c3)ccc21
[5]
  IC50: 1.69 µM (active)
[6]
  IC50: 1.5 µM (active)
Orexin receptor type 2 [7]
  IC50: > 88.8 µM (inactive)
CHO-K1
  IC50: > 66.3 µM (inactive)
Orexin receptor type 2 [8]
  IC50: 0.07 µM (active)
[9]
  IC50: > 49.8 µM (inactive)

## Cc1cc(C)cc(NC(=S)NC2CC3CCCC(C2)N3Cc2cccs2)c1 (configuration not stated)
[10]
  IC50: 2.17 µM (active)
Nonstructural protein 1
  IC50: > 100 µM (active)
[11]
  IC50: 12.9 µM (active)
[12]
  IC50: 4.06 µM (active)

## CC(CC(=O)N(CCC1=CCCCC1)c1c(N)n(Cc2ccccc2)c(=O)[nH]c1=O)c1ccccc1 (configuration not stated)
[3]
  EC50: > 92.5 µM (inactive)
Mu-type opioid receptor
  EC50: > 92.5 µM (inactive)
[4]
  EC50: > 92.5 µM (inactive)

## CCOc1ccc(C2=Nn3c(nnc3-c3ccccc3OC)SC2)cc1
[13]
  EC50: < 0.1 µM (active)
cells
  EC50: 0.046 µM (active)
[14]
  EC50: < 0.12 µM (active)
[15]
  EC50: 0.034 µM (active)
[16]
  AC50: 63 µM (active)
BJ [17]
  EC50: < 0.12 µM (active)
Paired box protein Pax-8
  AC50: 0.317 µM (active)
[18]
  EC50: 0.04 µM (active)
[19]
  EC50: < 0.1 µM (active)
BJ [20]
  EC50: < 0.104 µM (active)
[21]
  EC50: < 0.1 µM (active)

From ChEMBL document CHEMBL1201862, “PubChem BioAssay data set” (2004)
